Measured values from patent US7932262B2 (Novartis AG, priority 2006, dated 2011).

Assays:
PC-3 cells = test: Cell Proliferation Assay (Cell Titer Glo), PC-3 cell line; format: cell-based; settings: Homo sapiens, PC-3, 72 h, PC-3 cells, 3 days incubation; read-out: CP EC50 PC3
Outline: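 PC-3 cells, 1000 cells/well, left to adhere 3-5 h, then exposed for 3 days at 37° C to compounds as 1:3 serial dilutions from 500× DMSO stocks diluted in growth medium. Medium then replaced with fresh medium and viability read by Cell Titer Glo luminescence.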

[1] = test system: pAkt308 (phosphorylation of Akt at T308) in PC-3 cells; test: pAkt T308 ECL Assay in PC-3 cells; format: cell-based; settings: Homo sapiens, 6 h, six hours with compound, read-out: PAKT308 PC3 IC50
Outline: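 PC-3 cells seeded at 15,000/well overnight were treated with serially diluted compounds for 6 h at 37° C, then lysed on ice. Lysates were captured on MSD plates for pAkt T308 and total Akt, detected with 10 nM SULFO-TAG antibodies by electrochemiluminescence.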

PDK1 kinase = target: T1, PDK1 kinase (Homo sapiens, UniProt O15530); test: PDK1 Kinase Alpha Screen Assay; format: biochemical; settings: read-out: PDK1 IC50
T1 sequence (O15530 1-556): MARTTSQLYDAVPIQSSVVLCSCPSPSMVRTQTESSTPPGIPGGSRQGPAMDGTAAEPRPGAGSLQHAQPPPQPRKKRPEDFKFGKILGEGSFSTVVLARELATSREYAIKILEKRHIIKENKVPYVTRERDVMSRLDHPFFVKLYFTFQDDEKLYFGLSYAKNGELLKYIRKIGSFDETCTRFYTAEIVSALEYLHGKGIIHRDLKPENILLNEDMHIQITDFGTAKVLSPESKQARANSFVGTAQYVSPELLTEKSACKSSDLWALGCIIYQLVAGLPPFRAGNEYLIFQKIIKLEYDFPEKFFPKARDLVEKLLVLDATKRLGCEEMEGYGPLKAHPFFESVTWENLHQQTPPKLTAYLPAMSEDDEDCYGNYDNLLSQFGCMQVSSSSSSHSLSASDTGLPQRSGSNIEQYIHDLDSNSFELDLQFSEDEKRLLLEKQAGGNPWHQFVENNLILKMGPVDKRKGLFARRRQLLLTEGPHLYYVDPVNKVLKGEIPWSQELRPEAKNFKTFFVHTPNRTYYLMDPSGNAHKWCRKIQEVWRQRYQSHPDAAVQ
Outline: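 PDK1 phosphorylated 50 nM biotinylated PDK1-4 peptide with 10 uM ATP in Tris pH 7.5, 10 mM MgCl2, 2 mM DTT, 2.5% DMSO for 3-18 hours. After EDTA stop, phosphopeptide was detected by AlphaScreen using phospho-(Ser/Thr) PKA substrate antibody with protein A/streptavidin beads, read after overnight incubation.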

A2780 cells = test: Cell Proliferation Assay (Cell Titer Glo), A2780; format: cell-based; settings: Homo sapiens, 72 h; A2780 cells, 3 days incubation; read-out: CPEC50 A2780
Outline: (§1)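 Cells seeded at 1000/well, allowed to adhere 3-5 h, then exposed to DMSO-dissolved compounds for 3 days at 37° C., 5% CO2. Medium replaced before Cell Titer Glo addition; luminescence read after 10 min.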

PC3MM cells = test: Cell Proliferation Assay (Cell Titer Glo), PC3MM; format: cell-based; settings: 72 h; PC3MM cells, 3 days incubation; read-out: CP EC50 PC3MM
Outline: as §1

CC(C)CN1CCC(Oc2cccc3cnc(Nc4ccc(S(N)(=O)=O)cc4)nc23)CC1 [Compound 45, 4-[8-(1-Isobutyl-piperidin-4-yloxy)-quinazolin-2-ylamino]-benzenesulfonamide]
< 5 µM: EC50 (PC-3 cells) | IC50 [1] | IC50 (PDK1 kinase) | EC50 (A2780 cells)

NS(=O)(=O)c1ccc(Nc2ncc3ccc(OC4CCNCC4)cc3n2)cc1 [Compound 51, 4-[7-(Piperidin-4-yloxy)-quinazolin-2-ylamino]-benzenesulfonamide]
< 5 µM: EC50 (PC-3 cells) | IC50 [1] | IC50 (PDK1 kinase) | EC50 (A2780 cells)

CN1CCC(Oc2ccc3cnc(Nc4ccc(S(N)(=O)=O)cc4)nc3c2)CC1 [Compound 52, 4-[7-(1-Methyl-piperidin 4-yloxy)-quinazolin-2-ylamino]-benzenesulfonamide]
< 5 µM: EC50 (PC-3 cells) | IC50 [1] | IC50 (PDK1 kinase) | EC50 (A2780 cells) | EC50 (PC3MM cells)

CN1CCC(Oc2ccc3cnc(Nc4ccc(S(=O)(=O)N5CCOCC5)cc4)nc3c2)CC1 [Compound 53, [7-(1-Methyl-piperidin-4-yloxy)-quinazolin-2-yl]-[4-(morpholine-4-sulfonyl)-phenyl]-amine]
< 5 µM: EC50 (PC-3 cells) | IC50 [1] | IC50 (PDK1 kinase) | EC50 (A2780 cells)

NS(=O)(=O)c1ccc(Nc2ncc3ccc(-c4ccccc4)c(OC4CCNCC4)c3n2)cc1 [Compound 67, 4-[7-Phenyl-8-(piperidin-4-yloxy)-quinazolin-2-ylamino]-benzenesulfonamide]
< 5 µM: EC50 (PC-3 cells) | IC50 [1] | IC50 (PDK1 kinase) | EC50 (A2780 cells)

CC(C)N1CCC(c2c(O)ccc3cnc(Nc4ccc(S(N)(=O)=O)cc4)nc23)CC1 [Compound 134, 4-[7-Hydroxy-8-(1-isopropyl-piperidin-4-yl)-quinazolin-2-ylamino]-benzenesulfonamide]
< 5 µM: EC50 (PC-3 cells) | IC50 [1] | IC50 (PDK1 kinase) | EC50 (A2780 cells)

Cn1cc(-c2ccc3cnc(Nc4ccc(S(N)(=O)=O)cc4)nc3c2)cn1 [Compound 136, 4-[7-(1-Methyl-1H-pyrazol-4-yl)-quinazolin-2-ylamino]-benzenesulfonamide]
< 5 µM: EC50 (PC-3 cells) | IC50 [1] | IC50 (PDK1 kinase) | EC50 (A2780 cells)

NS(=O)(=O)c1ccc(Nc2ncc3ccc(-c4cccnc4F)cc3n2)cc1 [Compound 137, 4-[7-(2-Fluoro-pyridin-3-yl)-quinazolin-2-ylamino]-benzenesulfonamide]
< 5 µM: EC50 (PC-3 cells) | IC50 [1] | IC50 (PDK1 kinase) | EC50 (A2780 cells)
